In US20230085307A1, “PYRIDAZINONE COMPOUND AND HERBICIDE” (NISSAN CHEMICAL CORPORATION, priority 2019, published 2023):

Tests used:
barnyard grass = assay: Test Example 4: herbicidal effect by soil treatment (Table 19, symbol H); assay type: in vivo, barnyard grass (Echinochloa crus-galli); conditions: amount of applied herbicide 320 g/ha
Outline: (§1)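 Herbicidal effect was rated 3 weeks after treatment, using the scoring criteria of an earlier test. The compound, formulated as an emulsion and diluted in water to a set herbicide amount, had been sprayed uniformly on soil over freshly sown seeds. Growth took place in a greenhouse at 25° C. to 30° C.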

chickweed = assay: Test Example 4: herbicidal effect by soil treatment (Table 19, symbol P); assay type: in vivo, common chickweed (Stellaria media); conditions: amount of applied herbicide 320 g/ha
Outline: as §1

wild oat [1] = assay: Test Example 5: herbicidal effect by foliage application, plastic box (Table 20, symbol I); assay type: in vivo, wild oat (Avena fatua); conditions: foliage application, 320 g/ha, three weeks after application
Outline: (§2)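 Foliar spray test: emulsion formulation diluted in water to a set application rate, sprayed onto 14-day-old plants raised in diluvial soil at 25° C to 30° C under glass. Both herbicidal effect and crop effect rated visually three weeks later.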

windgrass [2] = assay: Test Example 5: herbicidal effect by foliage application, plastic box (Table 20, symbol L); assay type: in vivo, windgrass (Apera spica-venti); conditions: foliage application, 320 g/ha, three weeks after application
Outline: as §2

Japanese bulrush = assay: Test Example 2: herbicidal activity, application during weed generation under submerged conditions (Table 17, symbol B); assay type: in vivo, Japanese bulrush (Schoenoplectus juncoides); conditions: AAH 320 g/ha; application during weed generation, submerged conditions
Outline: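 Steps: fill Wagner pots with alluvial soil; add water to give 4 cm depth; sow the species mixed; grow under glass at 25–30° C.; at 1–2 leaves apply water-diluted emulsion formulation to the water surface at a fixed herbicide amount; score after 3 weeks.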

redroot pigweed = assay: Test Example 5: herbicidal effect by foliage application, plastic box (Table 20, symbol N); assay type: in vivo, redroot pigweed (Amaranthus retroflexus); conditions: foliage application, 320 g/ha, three weeks after application
Outline: as §2

lambsquarters [3] = assay: Test Example 4: herbicidal effect by soil treatment (Table 19, symbol O); assay type: in vivo, lambsquarters (Chenopodium album); conditions: amount of applied herbicide 320 g/ha
Outline: as §1

wild oat [4] = assay: Test Example 4: herbicidal effect by soil treatment (Table 19, symbol I); assay type: in vivo, wild oat (Avena fatua); conditions: amount of applied herbicide 320 g/ha
Outline: as §1

persian speedwell = assay: Test Example 5: herbicidal effect by foliage application, plastic box (Table 20, symbol R); assay type: in vivo, Persian speedwell (Veronica persica); conditions: foliage application, 320 g/ha, three weeks after application
Outline: as §2

late watergrass = assay: Test Example 1: herbicidal activity, application before weed generation under submerged conditions (Table 16, symbol A); assay type: in vivo, late watergrass (Echinochloa oryzicola); conditions: amount of applied herbicide 320 g/ha
Outline: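 Submerged Wagner pots (alluvial soil, 4 cm water) sown with weed seeds and planted with 2.5-leaf rice seedlings; emulsifiable concentrate diluted in water applied to water surface on sowing day. Held in greenhouse at 25-30 °C; injury scored 0-5 by herbicidal rate after three weeks.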

windgrass [5] = assay: Test Example 4: herbicidal effect by soil treatment (Table 19, symbol L); assay type: in vivo, windgrass (Apera spica-venti); conditions: amount of applied herbicide 320 g/ha
Outline: as §1

lambsquarters [6] = assay: Test Example 5: herbicidal effect by foliage application, plastic box (Table 20, symbol O); assay type: in vivo, lambsquarters (Chenopodium album); conditions: foliage application, 320 g/ha, three weeks after application
Outline: as §2

green foxtail [7] = assay: Test Example 5: herbicidal effect by foliage application, plastic box (Table 20, symbol G); assay type: in vivo, green foxtail (Setaria viridis); conditions: foliage application, 320 g/ha, three weeks after application
Outline: as §2

Italian ryegrass = assay: Test Example 4: herbicidal effect by soil treatment (Table 19, symbol K); assay type: in vivo, Italian ryegrass (Lolium multiflorum); conditions: amount of applied herbicide 320 g/ha
Outline: as §1

Chinese sprangletop = assay: Test Example 3: herbicidal effect by foliage application, Wagner pot (Table 18, symbol D); assay type: in vivo, chinese sprangletop (Leptochloa chinensis); conditions: for Herbicidal effect on D (Chinese sprangletop), foliage application: amount of applied herbicide 320 g/ha
Outline: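 Plants were sown in alluvial soil held under 0.1–0.5 cm standing water and grown 14 days in a greenhouse at 25–30 °C. An emulsifiable formulation, water-diluted to the set dose, was then sprayed onto the foliage, and effects were scored three weeks later using previously defined criteria.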

velvetleaf = assay: Test Example 5: herbicidal effect by foliage application, plastic box (Table 20, symbol M); assay type: in vivo, velvetleaf (Abutilon theophrasti); conditions: foliage application, 320 g/ha, three weeks after application
Outline: as §2

green foxtail [8] = assay: Test Example 4: herbicidal effect by soil treatment (Table 19, symbol G); assay type: in vivo, green foxtail (Setaria viridis); conditions: amount of applied herbicide 320 g/ha
Outline: as §1

CCCC(=O)Oc1c(C)nn(C)c(=O)c1-c1c(-c2ccc(F)cc2OC)sc2cc(OC)ccc12 [3-077]
H: barnyard grass, herbicidal effect grade (barnyard grass): 3 (Herbicidal rate of 40% or more and less than 70%) | P: chickweed, herbicidal effect grade (chickweed): 4 (Herbicidal rate of 70% or more and less than 90%) | I: wild oat, herbicidal effect grade (wild oat [1]): 4 (Herbicidal rate of 70% or more and less than 90%) | L: windgrass, herbicidal effect grade (windgrass [2]): 4 (Herbicidal rate of 70% or more and less than 90%) | herbicidal effect rating, B: Japanese bulrush (Japanese bulrush): 4 (Herbicidal rate of 70% or more and less than 90%) | N: redroot pigweed, herbicidal effect grade (redroot pigweed): 3 (Herbicidal rate of 40% or more and less than 70%) | O: lambsquarters, herbicidal effect grade (lambsquarters [3]): 4 (Herbicidal rate of 70% or more and less than 90%) | I: wild oat, herbicidal effect grade (wild oat [4]): 2 (Herbicidal rate of 20% or more and less than 40%) | R: persian speedwell, herbicidal effect grade (persian speedwell): 3 (Herbicidal rate of 40% or more and less than 70%) | Herbicidal effect, A: late watergrass (late watergrass): 5 (Herbicidal rate of 90% or more (almost completely withered)) | L: windgrass, herbicidal effect grade (windgrass [5]): 3 (Herbicidal rate of 40% or more and less than 70%) | O: lambsquarters, herbicidal effect grade (lambsquarters [6]): 4 (Herbicidal rate of 70% or more and less than 90%) | G: green foxtail, herbicidal effect grade (green foxtail [7]): 5 (Herbicidal rate of 90% or more (almost completely withered)) | K: Italian ryegrass, herbicidal effect grade (Italian ryegrass): 3 (Herbicidal rate of 40% or more and less than 70%) | herbicidal effect on Chinese sprangletop (D) (Chinese sprangletop; 320 g/ha): 1 (Herbicidal rate of 5% or more and less than 20%) | M: velvetleaf, herbicidal effect grade (velvetleaf): 4 (Herbicidal rate of 70% or more and less than 90%)

COCCOc1ccc(-c2oc3ccccc3c2-c2c(O)c(C)nn(C)c2=O)cc1 [Compound No. 8-007, 5-hydroxy-4-(2-(4-(2-methoxyethoxy)phenyl)benzofuran-3-yl)-2,6-dimethylpyridazin-3-(2H)-one]
H: barnyard grass, herbicidal effect grade (barnyard grass): 5 (Herbicidal rate of 90% or more (almost completely withered)) | P: chickweed, herbicidal effect grade (chickweed): 0 (Herbicidal rate of 5% or less (almost no effect)) | G: green foxtail, herbicidal effect grade (green foxtail [8]): 5 (Herbicidal rate of 90% or more (almost completely withered)) | herbicidal effect on wild oat (I) (wild oat [1]): 1 (Herbicidal rate of 5% or more and less than 20%) | herbicidal effect on windgrass (L) (windgrass [2]): 0 (Herbicidal rate of 5% or less (almost no effect)) | herbicidal effect rating, B: Japanese bulrush (Japanese bulrush): 4 (Herbicidal rate of 70% or more and less than 90%) | O: lambsquarters, herbicidal effect grade (lambsquarters [3]): 4 (Herbicidal rate of 70% or more and less than 90%) | I: wild oat, herbicidal effect grade (wild oat [4]): 0 (Herbicidal rate of 5% or less (almost no effect)) | herbicidal effect on persian speedwell (R) (persian speedwell): 5 (Herbicidal rate of 90% or more (almost completely withered)) | Herbicidal effect, A: late watergrass (late watergrass): 5 (Herbicidal rate of 90% or more (almost completely withered)) | L: windgrass, herbicidal effect grade (windgrass [5]): 0 (Herbicidal rate of 5% or less (almost no effect)) | herbicidal effect on lambsquarters (O) (lambsquarters [6]): 4 (Herbicidal rate of 70% or more and less than 90%) | herbicidal effect on green foxtail (G) (green foxtail [7]): 5 (Herbicidal rate of 90% or more (almost completely withered)) | K: Italian ryegrass, herbicidal effect grade (Italian ryegrass): 4 (Herbicidal rate of 70% or more and less than 90%) | Herbicidal effect on D (Chinese sprangletop), foliage application (Chinese sprangletop): 3 (Herbicidal rate of 40% or more and less than 70%) | herbicidal effect on velvetleaf (M) (velvetleaf): 5 (Herbicidal rate of 90% or more (almost completely withered))

COc1ccc(-c2oc3ccc(F)cc3c2-c2c(O)c(C)nn(C)c2=O)cc1 [Compound No. 9-020, 4-(5-fluoro-2-(4-methoxyphenyl)benzofuran-3-yl)-5-hydroxy-2,6-dimethylpyridazin-3(2H)-one]
H: barnyard grass, herbicidal effect grade (barnyard grass): 4 (Herbicidal rate of 70% or more and less than 90%) | P: chickweed, herbicidal effect grade (chickweed): 4 (Herbicidal rate of 70% or more and less than 90%) | G: green foxtail, herbicidal effect grade (green foxtail [8]): 1 (Herbicidal rate of 5% or more and less than 20%) | herbicidal effect on wild oat (I) (wild oat [1]): 3 (Herbicidal rate of 40% or more and less than 70%) | herbicidal effect on windgrass (L) (windgrass [2]): 5 (Herbicidal rate of 90% or more (almost completely withered)) | herbicidal effect rating, B: Japanese bulrush (Japanese bulrush): 3 (Herbicidal rate of 40% or more and less than 70%) | O: lambsquarters, herbicidal effect grade (lambsquarters [3]): 0 (Herbicidal rate of 5% or less (almost no effect)) | I: wild oat, herbicidal effect grade (wild oat [4]): 2 (Herbicidal rate of 20% or more and less than 40%) | herbicidal effect on persian speedwell (R) (persian speedwell): 5 (Herbicidal rate of 90% or more (almost completely withered)) | Herbicidal effect, A: late watergrass (late watergrass): 5 (Herbicidal rate of 90% or more (almost completely withered)) | L: windgrass, herbicidal effect grade (windgrass [5]): 2 (Herbicidal rate of 20% or more and less than 40%) | herbicidal effect on lambsquarters (O) (lambsquarters [6]): 5 (Herbicidal rate of 90% or more (almost completely withered)) | herbicidal effect on green foxtail (G) (green foxtail [7]): 5 (Herbicidal rate of 90% or more (almost completely withered)) | K: Italian ryegrass, herbicidal effect grade (Italian ryegrass): 5 (Herbicidal rate of 90% or more (almost completely withered)) | Herbicidal effect on D (Chinese sprangletop), foliage application (Chinese sprangletop): 4 (Herbicidal rate of 70% or more and less than 90%) | herbicidal effect on velvetleaf (M) (velvetleaf): 5 (Herbicidal rate of 90% or more (almost completely withered))
